Reference: patent publication US10828253B2, “Composition for injection” (HK INNO.N CORPORATION, priority 2017, dated 2020)

Assay: water solubility of the compound of Formula 1
Assay type: physicochemical
Procedure: However, the compound has a very low water solubility (0.02 mg/ml, pH 6.8), which increases (0.7 mg/ml, pH 3.0) under acid conditions, but not enough to have a significant effect. It is water insoluble and has a very low solubility, in particular, under neutral or higher pH environments, so it has a much difficulty in being formulated into preparations through its dissolution and stabilization in aqueous solutions. Also, its degradation products are increased under acid conditions, thus leading to poor stability and causing a restriction on selection of salts. Furthermore, in case of using solubilizers such as surfactants, etc., to improve the solubility, it requires an excessive amount of excipients, thus causing difficulty.

solubility (aqueous buffer, pH 3.0, acid conditions): 700 µg/mL | solubility (pH 6.8, aqueous buffer): 20 µg/mL
Compound: Cc1nc2c(O[C@H]3CCOc4cc(F)cc(F)c43)cc(C(=O)N(C)C)cc2[nH]1 [Formula 1, (S)-4-((5,7-difluorochroman-4-yl)oxy)-N,N-2-trimethyl-1H-benzo[d]imidazole-6-carboxamide]
